For one assay, the target named is T1, human ETA receptors (Homo sapiens, UniProt P25101).
T1 construct: endogenous in cells; host or cells: TE 671 cells (ATCC HTB 139)
T1 sequence (P25101 21-427): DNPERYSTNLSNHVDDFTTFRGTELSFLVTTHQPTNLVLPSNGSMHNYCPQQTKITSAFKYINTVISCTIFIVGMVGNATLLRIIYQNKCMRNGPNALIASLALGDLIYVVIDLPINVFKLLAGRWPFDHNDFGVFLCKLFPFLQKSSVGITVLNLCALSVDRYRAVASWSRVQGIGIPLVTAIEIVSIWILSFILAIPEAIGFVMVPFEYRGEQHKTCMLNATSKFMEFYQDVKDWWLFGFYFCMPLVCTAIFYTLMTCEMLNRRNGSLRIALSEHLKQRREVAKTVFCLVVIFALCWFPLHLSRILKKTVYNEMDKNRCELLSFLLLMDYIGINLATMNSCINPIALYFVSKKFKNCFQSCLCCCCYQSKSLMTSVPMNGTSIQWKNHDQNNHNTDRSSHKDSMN
Description: Binding Test #1: inhibition of 125I-ET-1 binding to ETA receptors (TE 671 cell membranes). Particulars: Table 1; † incubation at 24° C.; read-out: ETA. In short, it runs like this: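 Membranes from TE 671 cells (up to 8 μg protein) incubated with ¹²⁵I-ET-1 and compound (1 nM–100 μM final) in 30 mM HEPES pH 7.4, 150 mM NaCl, 5 mM MgCl2, 0.5% bacitracin, 16–18 h at 4 °C or alternatively at 24 °C. Nonspecific binding with 80 nM ET-1; bound pellet gamma-counted, % inhibition calculated, usually triplicate.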

In another assay the target is T2, human ETB receptor (Homo sapiens, UniProt P24530).
T2 construct: expressed in transfected cells; host or cells: COS7 cells
T2 sequence (P24530 27-442): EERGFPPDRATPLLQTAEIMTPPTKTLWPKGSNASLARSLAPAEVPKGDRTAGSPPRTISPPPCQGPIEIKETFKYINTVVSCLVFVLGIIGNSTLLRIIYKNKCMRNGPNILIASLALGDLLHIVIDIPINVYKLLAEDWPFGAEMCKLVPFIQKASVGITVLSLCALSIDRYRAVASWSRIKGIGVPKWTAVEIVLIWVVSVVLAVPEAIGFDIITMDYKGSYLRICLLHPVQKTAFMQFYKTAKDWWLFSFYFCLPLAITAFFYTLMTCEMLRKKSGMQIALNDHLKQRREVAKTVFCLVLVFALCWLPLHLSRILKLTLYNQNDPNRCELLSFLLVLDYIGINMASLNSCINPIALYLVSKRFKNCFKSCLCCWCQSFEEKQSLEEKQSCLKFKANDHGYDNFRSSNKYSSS
In words: Binding Test #2: inhibition of 125I-ET-1 binding to ETB receptors (transfected COS7 cell membranes). To be noted: Table 1; † incubation at 24° C.; read-out: ETB. In short, it runs like this: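 Competition with 125I-ET-1 for binding to membranes from COS7 cells transfected with human ETB receptor, used at 1 μg/50 μl binding buffer. Membranes prepared in HEPES pH 7.4 with aprotinin, including a DNase/MnCl2 step at 37 °C for 30 min.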

As for `Cc1cc2c(cc1CC(=O)c1sccc1S(=O)(=O)Nc1onc(C)c1Cl)OCO2` [N-(4-chloro-3-methyl-5-isoxazolyl)-2-[2-methyl-4,5-(methylenedioxy)phenylacetyl]thiophene-3-sulfonamide], the IC50 at human ETA receptors came out at 0.0032 µM; at human ETB receptor it was 9 µM.

Turning to `Cc1noc(NS(=O)(=O)c2ccsc2C(=O)Cc2ccc3c(c2)OCO3)c1Cl` [N-(4-chloro-3-methyl-5-isoxazolyl)-2-[(3,4-(methylenedioxy)phenylacetyl]thiophene-3-sulfonamide], the IC50 at human ETA receptors worked out at 0.021 µM; on human ETB receptor it was 6.5 µM.

The values above are taken from US6683103B2, “Sulfonamides for treatment of endothelin-mediated disorders” (Texas Biotechnology Corporation, priority 1997, dated 2004).
